# In patent US12678386B2, “Organic compounds as TRPM8 activators” (Givaudan SA, priority 2021, dated 2026):
# Biological target: T1, hTRPM8 (Homo sapiens, UniProt Q7Z2W7)
# T1 construct: expressed in transfected cells
# Assay: Assay on TRPM8 modulators: calcium imaging (Fluo-4, Flexstation) in HEK293 cell line stably expressing hTRPM8
# Format: cell-based
# Conditions: HEK293 cells stably expressing hTRPM8; calcium influx, sigmoidal dose-response fit
# Experimental: A HEK293 cell line stably expressing hTRPM8 was generated according to Klein et al., (Chem. Senses 36: 649-658, 2011) and receptor activation was monitored by calcium imaging in a Flexstation. For Ca-imaging assays of TRPM8 channel activation, cells were seeded on day 0 at a density of 12000 cells per well in Dulbecco's modified Eagle medium (DMEM) containing 9% foetal bovine serum in black, clear bottom 96-well plates that had been coated with 0.001% polyethyleneimine (molecular weight=60 000, Acros Organics). On day 2, agonists were evaluated via calcium imaging using Fluo-4. Briefly, growth medium was discarded, and the cells were incubated in the dark for 1 h at 37° C. in 50 μL loading buffer consisting of 2.7 μM Fluo-4 AM (Invitrogen) and […] probenecid (Sigma-Aldrich) in DMEM (without serum). After incubation, the plates were washed five times with 100 μL of assay buffer (in mM: 130 NaCl, 5 KCl, 10 HEPES, 2 CaCl2, and 10 glucose, pH7.4.) and further incubated in the dark at room temperature for 30 min. The cells were then washed five times with 100 μL assay buffer and then calcium influx to serial dilutions of inventive compounds were measured in a Flexstation 3 (Molecular Devices). Receptor activation was initiated following addition of 20 μl of a 10-fold concentrated ligand stock solution, which is also prepared in assay buffer. Fluorescence was continuously monitored for 15 seconds prior to ligand addition and for 105 seconds after ligand addition, for a total of 120 seconds. Maximal receptor activation in relation to solvent control and relative to 31.6 μM menthol is determined. Data from serial dilutions were processed with a KNIME workflow to fit a sigmoidal dose-response curve and to extrapolate EC50 values.
# T1 sequence (Q7Z2W7 whole entry): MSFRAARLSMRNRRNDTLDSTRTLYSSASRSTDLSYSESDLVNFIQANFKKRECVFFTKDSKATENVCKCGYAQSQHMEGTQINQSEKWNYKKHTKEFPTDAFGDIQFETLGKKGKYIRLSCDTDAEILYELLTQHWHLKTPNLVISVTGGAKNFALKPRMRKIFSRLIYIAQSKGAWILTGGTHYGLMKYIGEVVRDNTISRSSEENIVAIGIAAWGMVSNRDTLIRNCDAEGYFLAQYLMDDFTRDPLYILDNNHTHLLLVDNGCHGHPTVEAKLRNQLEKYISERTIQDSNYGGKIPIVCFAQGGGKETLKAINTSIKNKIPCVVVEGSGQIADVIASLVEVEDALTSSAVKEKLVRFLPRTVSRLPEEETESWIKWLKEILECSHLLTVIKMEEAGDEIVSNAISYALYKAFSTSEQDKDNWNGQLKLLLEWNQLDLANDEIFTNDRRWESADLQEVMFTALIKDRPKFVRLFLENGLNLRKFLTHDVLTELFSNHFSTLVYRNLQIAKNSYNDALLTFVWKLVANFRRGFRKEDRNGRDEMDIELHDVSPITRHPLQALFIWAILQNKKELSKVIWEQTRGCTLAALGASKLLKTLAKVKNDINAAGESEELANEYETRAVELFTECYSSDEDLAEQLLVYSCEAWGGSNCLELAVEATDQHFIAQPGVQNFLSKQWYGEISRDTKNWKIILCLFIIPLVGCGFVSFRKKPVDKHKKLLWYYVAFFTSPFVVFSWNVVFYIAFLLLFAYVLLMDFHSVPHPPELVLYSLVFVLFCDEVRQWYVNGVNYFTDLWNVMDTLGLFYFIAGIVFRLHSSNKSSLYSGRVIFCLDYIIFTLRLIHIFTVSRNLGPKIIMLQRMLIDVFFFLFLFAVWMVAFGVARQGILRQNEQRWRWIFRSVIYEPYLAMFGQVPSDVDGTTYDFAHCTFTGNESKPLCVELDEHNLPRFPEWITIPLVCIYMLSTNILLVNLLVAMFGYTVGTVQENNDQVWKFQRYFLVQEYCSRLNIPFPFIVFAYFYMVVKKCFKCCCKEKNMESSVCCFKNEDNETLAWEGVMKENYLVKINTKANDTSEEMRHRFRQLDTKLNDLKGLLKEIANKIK
row,SMILES,EC50 [nM]
1,CCC(C)C(=O)N1CCCCC1c1nc(-c2ccc(C)cc2)cn1C(=O)COCc1ccccc1 (stereo not shown) [1-(2-(1-(2-(benzyloxy)acetyl)-4-(p-tolyl)-1H-imidazol-2-yl)piperidin-1-yl)-2-methylbutan-1-one],< 50
2,CCCCCCCCCCCC(=O)n1cc(-c2ccc(C)cc2)nc1C1CCCCN1C(=O)C(C)SC (stereo not shown) [1-(2-(1-(2-(methylthio)propanoyl)piperidin-2-yl)-4-(p-tolyl)-1H-imidazol-1-yl)dodecan-1-one],50 to 300
3,CCCCCCCCCCCC(=O)n1cc(-c2ccc(C)cc2)nc1C1CCCCN1C(=O)C(C)CC (stereo not shown) [1-(2-(1-(2-methylbutanoyl)piperidin-2-yl)-4-(p-tolyl)-1H-imidazol-1-yl)dodecan-1-one],300 to 1000
4,CSC(C)C(=O)N1CCCCC1c1nc(-c2ccc(C)cc2)cn1C(=O)c1ccccc1 (stereo not shown) [1-(2-(1-benzoyl-4-(p-tolyl)-1 H-imidazol-2-yl)piperidin-1-yl)-2-(methylthio)propan-1-one],< 50
5,CCC(=O)N1CCCCC1c1nc(-c2ccc(C)cc2)cn1C(=O)CC (stereo not shown) [1-(2-(1-propionyl-4-(p-tolyl)-1 H-imidazol-2-yl)piperidin-1-yl)propan-1-one],1000 to 35000
6,CC(=O)n1ccc(N(Cc2cccs2)C(=O)COc2ccc(C)cc2)n1 [N-(1-acetyl-1H-pyrazol-3-yl)-N-(thiophen-2-ylmethyl)-2-(p-tolyloxy)acetamide],< 50
7,Cc1ccc(OCC(=O)N(Cc2cccs2)c2ccn(C(=O)c3ccccc3)n2)cc1 [N-(1-benzoyl-1H-pyrazol-3-yl)-N-(thiophen-2-ylmethyl)-2-(p-tolyloxy)acetamide],< 50
8,Cc1ccc(OCC(=O)N(Cc2cccs2)c2ccn(C(=O)C(C)C)n2)cc1 [N-(1-isobutyryl-1H-pyrazol-3-yl)-N-(thiophen-2-ylmethyl)-2-(p-tolyloxy)acetamide],< 50

# Continued, values first:
row,EC50 [nM],SMILES
1,50 to 300,CCCCCC(=O)n1cc(-c2ccc(C)cc2)nc1C1CCCCN1C(=O)C(C)SC (stereo not shown) [1-(2-(1-(2-(methylthio)propanoyl)piperidin-2-yl)-4-(p-tolyl)-1H-imidazol-1-yl)hexan-1-one]
2,< 50,CCC(C)C(=O)N1CCCCC1c1nc(-c2ccc(C)cc2)cn1C(=O)COC (stereo not shown) [1-(2-(1-(2-methoxyacetyl)-4-(p-tolyl)-1H-imidazol-2-yl)piperidin-1-yl)-2-methylbutan-1-one]
3,< 50,CCCCCC(=O)n1cc(-c2ccc(C)cc2)nc1C1CCCCN1C(=O)C(C)CC (stereo not shown) [1-(2-(1-(2-methylbutanoyl)piperidin-2-yl)-4-(p-tolyl)-1H-imidazol-1-yl)hexan-1-one]
4,300 to 1000,"CSC(C)C(=O)N1CCCCC1c1nc(-c2ccc(C)cc2)cn1C(=O)[C@@H]1C[C@H](C)CC[C@H]1C(C)C (stereo partly drawn) [1-(2-(1-((1R,2S,5R)-2-isopropyl-5-methylcyclohexane-1-carbonyl)-4-(p-tolyl)-1H-imidazol-2-yl)piperidin-1-yl)-2-(methylthio)propan-1-one]"
5,1000 to 35000,"CCC(C)C(=O)N1CCCCC1c1nc(-c2ccc(C)cc2)cn1C(=O)[C@@H]1C[C@H](C)CC[C@H]1C(C)C (stereo partly drawn) [1-(2-(1-((1R,2S,5R)-2-isopropyl-5-methylcyclohexane-1-carbonyl)-4-(p-tolyl)-1H-imidazol-2-yl)piperidin-1-yl)-2-methylbutan-1-one]"
6,50 to 300,CSC(C)C(=O)N1CCCCC1c1nc(-c2ccc(C)cc2)cn1C(C)=O (stereo not shown) [1-(2-(1-acetyl-4-(p-tolyl)-1 H-imidazol-2-yl)piperidin-1-yl)-2-(methylthio)propan-1-one]
7,< 50,CCC(C)C(=O)N1CCCCC1c1nc(-c2ccc(C)cc2)cn1C(C)=O (stereo not shown) [1-(2-(1-acetyl-4-(p-tolyl)-1H-imidazol-2-yl)piperidin-1-yl)-2-methylbutan-1-one]
8,50 to 300,CCC(C)C(=O)N1CCCCC1c1nc(-c2ccc(C)cc2)cn1C(=O)C(C)C (stereo not shown) [1-(2-(1-isobutyryl-4-(p-tolyl)-1 H-imidazol-2-yl)piperidin-1-yl)-2-methylbutan-1-one]
9,< 50,CSC(C)C(=O)N1CCCCC1c1nc(-c2ccc(C)cc2)cn1C(=O)C(C)C (stereo not shown) [1-(2-(1-isobutyryl-4-(p-tolyl)-1H-imidazol-2-yl)piperidin-1-yl)-2-(methylthio)propan-1-one]
10,50 to 300,Cc1ccc(-c2cn(C(=O)C(C)C)c(C3CCCCN3C(=O)C(C)C)n2)cc1 (stereo not shown) [1-(2-(1-isobutyryl-4-(p-tolyl)-1H-imidazol-2-yl)piperidin-1-yl)-2-methylpropan-1-one]
11,< 50,CSC(C)C(=O)N1CCCCC1c1nc(-c2ccc(C)cc2)cn1C(=O)C(C)SC (stereo not shown) [2-(methylthio)-1-(2-(1-(2-(methylthio)propanoyl)-4-(p-tolyl)-1H-imidazol-2-yl)piperidin-1-yl)propan-1-one]
